# Test results taken from patent publication US6852759B2, “Process for the synthesis of trans-alkenoic acids, use thereof” (priority 2002, dated 2005).
# What was measured:
# [1] = tested on: CCl4 induced hepatic injury in rats; experiment: Hepatoprotective activity, curative study, CCl4; assay type: in vivo
# [2] = tested on: acetaminophen (APAP) in mice; experiment: Hepatoprotective activity, prophylactic study, acetaminophen (APAP) after diethyl-ether; assay type: in vivo
# [3] = 12.5 mg/kg p.o. + CCl4, curative
# [4] = 100 mg/kg p.o. + CCl4, curative
# [5] = TCA alone 100 mg/kg p.o., no CCl4, curative study
# [6] = 12.5 mg/kg p.o. + APAP, prophylactic
# [7] = 25 mg/kg p.o. + APAP, prophylactic
# [8] = 50 mg/kg p.o. + APAP, prophylactic
# [9] = 100 mg/kg p.o. + APAP, prophylactic
# [10] = TCA alone 100 mg/kg p.o., no APAP, prophylactic study
smiles,measurement,setting,value
"CCCCCCCC/C=C/CCCCCCCCCCCCCC(=O)O [TCA, t-Tetracos-15-enoic acid]","Serum ALP, hepatoprotective activity percent",[1]; [3],(27.87 ± 9.48) percent
same,Serum Bilirubin,[1]; [3],0.54 ± 0.02 mg %
same,"Serum Bilirubin, hepatoprotective activity percent",[1]; [3],(44.52 ± 3.66) percent
same,Serum GOT,[1]; [3],524.23 ± 34.93 Units
same,"Serum GOT, hepatoprotective activity percent",[1]; [3],(37.12 ± 5.14) percent
same,Serum GPT,[1]; [3],1001.86 ± 48.55 Units
same,"Serum GPT, hepatoprotective activity percent",[1]; [3],(35.59 ± 3.37) percent
same,Serum Triglycerides,[1]; [3],12.57 ± 0.61^NS mg %
same,"Serum Triglycerides, hepatoprotective activity percent",[1]; [3],(24.12 ± 10.07) percent
same,Serum ALP,"[1]; 25 mg/kg p.o. + CCl4, curative",50.92 ± 1.62 μmole of p-nitrophenol formed/min/L
same,"Serum ALP, hepatoprotective activity percent","[1]; 25 mg/kg p.o. + CCl4, curative",(34.03 ± 3.89) percent
same,Serum Bilirubin,"[1]; 25 mg/kg p.o. + CCl4, curative",0.47 ± 0.03 mg %
same,"Serum Bilirubin, hepatoprotective activity percent","[1]; 25 mg/kg p.o. + CCl4, curative",(53.51 ± 4.06) percent
same,Serum GOT,"[1]; 25 mg/kg p.o. + CCl4, curative",448.28 ± 54.88 Units
same,"Serum GOT, hepatoprotective activity percent","[1]; 25 mg/kg p.o. + CCl4, curative",(48.31 ± 8.808) percent
same,Serum GPT,"[1]; 25 mg/kg p.o. + CCl4, curative",772.68 ± 47.66 Units
same,"Serum GPT, hepatoprotective activity percent","[1]; 25 mg/kg p.o. + CCl4, curative",(51.52 ± 3.31) percent
same,Serum Triglycerides,"[1]; 25 mg/kg p.o. + CCl4, curative",11.81 ± 1.05^NS mg %
same,"Serum Triglycerides, hepatoprotective activity percent","[1]; 25 mg/kg p.o. + CCl4, curative",(36.23 ± 18.23) percent
same,Serum ALP,"[1]; 50 mg/kg p.o. + CCl4, curative",43.63 ± 2.82 μmole of p-nitrophenol formed/min/L
same,"Serum ALP, hepatoprotective activity percent","[1]; 50 mg/kg p.o. + CCl4, curative",(51.57 ± 6.78) percent
same,Serum Bilirubin,"[1]; 50 mg/kg p.o. + CCl4, curative",0.39 ± 0.02 mg %
same,"Serum Bilirubin, hepatoprotective activity percent","[1]; 50 mg/kg p.o. + CCl4, curative",(64.25 ± 3.76) percent
same,Serum GOT,"[1]; 50 mg/kg p.o. + CCl4, curative",365.43 ± 29.43 Units
same,"Serum GOT, hepatoprotective activity percent","[1]; 50 mg/kg p.o. + CCl4, curative",(60.50 ± 4.33) percent
same,Serum GPT,"[1]; 50 mg/kg p.o. + CCl4, curative",582.12 ± 37.77 Units
same,"Serum GPT, hepatoprotective activity percent","[1]; 50 mg/kg p.o. + CCl4, curative",(64.76 ± 2.62) percent
same,Serum Triglycerides,"[1]; 50 mg/kg p.o. + CCl4, curative",11.06 ± 0.61 mg %
same,"Serum Triglycerides, hepatoprotective activity percent","[1]; 50 mg/kg p.o. + CCl4, curative",(48.86 ± 10.64) percent
same,Serum ALP,[1]; [4],32.93 ± 2.13 μmole of p-nitrophenol formed/min/L
same,"Serum ALP, hepatoprotective activity percent",[1]; [4],(77.31 ± 5.13) percent
same,Serum Bilirubin,[1]; [4],0.29 ± 0.02 mg %
same,"Serum Bilirubin, hepatoprotective activity percent",[1]; [4],(76.54 ± 3.66) percent
same,Serum GOT,[1]; [4],318.96 ± 16.15 Units
same,"Serum GOT, hepatoprotective activity percent",[1]; [4],(67.35 ± 2.38) percent
same,Serum GPT,[1]; [4],457.55 ± 18.18 Units
same,"Serum GPT, hepatoprotective activity percent",[1]; [4],(73.41 ± 1.26) percent
same,Serum Triglycerides,[1]; [4],10.37 ± 0.65 mg %
same,"Serum Triglycerides, hepatoprotective activity percent",[1]; [4],(61.02 ± 11.24) percent
same,Serum ALP,[1]; [5],25.84 ± 2.32 μmole of p-nitrophenol formed/min/L
same,Serum Bilirubin,[1]; [5],0.16 ± 0.02 mg %
same,Serum GOT,[1]; [5],82.13 ± 10.59 Units
same,Serum GPT,[1]; [5],92.18 ± 15.75 Units
same,Serum Triglycerides,[1]; [5],6.98 ± 0.86 mg %
same,Serum ALP,[2]; [6],50.41 ± 3.07 μmole of p-nitrophenel formed/min/L
same,"Serum ALP, hepatoprotective activity percent",[2]; [6],(21.27 ± 9.50) percent
same,Serum GOT,[2]; [6],1079.43 ± 98.66 Units
same,"Serum GOT, hepatoprotective activity percent",[2]; [6],(25.66 ± 7.72) percent
same,Serum GPT,[2]; [6],2182.19 ± 137.86 Units
same,"Serum GPT, hepatoprotective activity percent",[2]; [6],(22.86 ± 5.31) percent
same,Serum Triglycerides,[2]; [6],14.72 ± 0.68 mg %
same,"Serum Triglycerides, hepatoprotective activity percent",[2]; [6],(28.28 ± 8.27) percent
same,Serum ALP,[2]; [7],46.23 ± 1.73 μmole of p-nitrophenel formed/min/L
same,"Serum ALP, hepatoprotective activity percent",[2]; [7],(34.15 ± 5.39) percent
same,Serum GOT,[2]; [7],880.10 ± 60.29 Units
same,"Serum GOT, hepatoprotective activity percent",[2]; [7],(41.26 ± 4.72) percent
same,Serum GPT,[2]; [7],1696.53 ± 48.31 Units
same,"Serum GPT, hepatoprotective activity percent",[2]; [7],(41.57 ± 1.86) percent
same,Serum Triglycerides,[2]; [7],13.47 ± 0.89 mg %
same,"Serum Triglycerides, hepatoprotective activity percent",[2]; [7],(43.32 ± 10.80) percent
same,Serum ALP,[2]; [8],41.44 ± 1.27 μmole of p-nitrophenel formed/min/L
same,"Serum ALP, hepatoprotective activity percent",[2]; [8],(49.04 ± 3.94) percent
same,Serum GOT,[2]; [8],619.36 ± 88.89 Units
same,"Serum GOT, hepatoprotective activity percent",[2]; [8],(61.67 ± 6.96) percent
same,Serum GPT,[2]; [8],1066.99 ± 118.14 Units
same,"Serum GPT, hepatoprotective activity percent",[2]; [8],(65.82 ± 4.55) percent
same,Serum Triglycerides,[2]; [8],12.34 ± 0.85 mg %
same,"Serum Triglycerides, hepatoprotective activity percent",[2]; [8],(56.84 ± 10.23) percent
same,Serum ALP,[2]; [9],35.08 ± 2.18 μmole of p-nitrophenel formed/min/L
same,"Serum ALP, hepatoprotective activity percent",[2]; [9],(68.82 ± 6.78) percent
same,Serum GOT,[2]; [9],310.53 ± 45.32 Units
same,"Serum GOT, hepatoprotective activity percent",[2]; [9],(85.85 ± 4.25) percent
same,Serum GPT,[2]; [9],539.60 ± 51.65 Units
same,"Serum GPT, hepatoprotective activity percent",[2]; [9],(86.13 ± 1.99) percent
same,Serum Triglycerides,[2]; [9],10.87 ± 0.69 mg %
same,"Serum Triglycerides, hepatoprotective activity percent",[2]; [9],(74.48 ± 8.37) percent
same,Serum ALP,[2]; [10],27.15 ± 2.92 μmole of p-nitrophenel formed/min/L
same,Serum GOT,[2]; [10],106.86 ± 30.15 Units
same,Serum GPT,[2]; [10],146.00 ± 32.15 Units
same,Serum Triglycerides,[2]; [10],7.77 ± 0.56 mg %
